MIC data for 13 molecules are collected here from ChEMBL document CHEMBL5143582, “Genome-Guided Discovery of Antifungal Filipins from a Deep-Sea-Derived Streptomyces antibioticus” (2022).

The test relates to Candida albicans. Nature of the test: Antifungal activity Candida albicans CMCC(F) 98001 assessed as inhibition of fungal growth incubated for 24 hrs by broth micro dilution method. Type of test: functional.

In brackets after ≈: the same amount, converted by molar mass.

Usually MIC stands for the lowest concentration that inhibits growth of the organism. As for `C\C1=C/C=C/C=C/C=C/C=C/[C@H](O)[C@@H](C)OC(=O)[C@H](CCC(C)C)[C@@H](O)C[C@@H](O)C[C@@H](O)C[C@@H](O)C[C@@H](O)C[C@@H](O)C[C@@H]1O`, the minimum inhibitory concentration (MIC) turned out to be 3.13 µg/mL (≈ 5.01 µM).

Consider `CCCCC[C@H]1C(=O)O[C@H](C)[C@@H](O)/C=C/C=C/C=C/C=C/C=C(\C)[C@@H](O)C[C@H](O)C[C@H](O)C[C@H](O)C[C@H](O)C[C@H](O)C[C@@H]1O`, for which the MIC was 3.13 µg/mL (≈ 5.01 µM).

With `CCCCCC[C@@H]1CC[C@@H](O)C[C@@H](O)C[C@@H](O)C[C@@H](O)C[C@@H](O)C[C@@H](O)C[C@H](O)/C(C)=C/C=C/C=C/C=C/C=C/[C@H](O)[C@@H](C)OC1=O`, the MIC is over 12.5 µg/mL.

In the case of `CCCC[C@H]1C(=O)O[C@H](C)[C@@H](O)/C=C/C=C/C=C/C=C/C=C(\C)[C@@H](O)C[C@H](O)C[C@H](O)C[C@H](O)C[C@H](O)C[C@H](O)C[C@@H]1O`, the MIC turned out to be 6.25 µg/mL (≈ 10.2 µM).

Consider `CC(C)CC[C@H]1C(=O)O[C@H](C)[C@@H](O)/C=C/C=C/C=C/C=C/C=C/[C@@H](O)C[C@H](O)C[C@H](O)C[C@H](O)C[C@H](O)C[C@H](O)C[C@@H]1O`, for which the MIC is over 12.5 µg/mL.

Regarding `CCCCCC[C@H]1C(=O)O[C@H](C)[C@@H](O)/C=C/C=C/C=C/C=C/C=C(\C)[C@@H](O)C[C@H](O)C[C@H](O)C[C@H](O)C[C@H](O)C[C@H](O)C[C@@H]1O`, the minimum inhibitory concentration (MIC) is 1.56 µg/mL (≈ 2.44 µM).

As for `C[C@@H]1C/C=C/C=C/C=C/C=C/C=C/[C@@H](O)C[C@H](O)C[C@H](O)C[C@H](O)C[C@H](O)C[C@H](O)C[C@H](O)CC(=O)O1`, the MIC was over 12.5 µg/mL.

For the molecule `C[C@@H]1[C@H](O)[C@@H](C)/C=C/C=C/C=C/C=C/C=C/C=C/C=C/[C@H](O[C@@H]2O[C@H](C)[C@@H](O)[C@H](N)[C@@H]2O)C[C@@H]2O[C@](O)(C[C@@H](O)C[C@@H](O)[C@H](O)CC[C@@H](O)C[C@@H](O)CC(=O)O[C@H]1C)C[C@H](O)[C@H]2C(=O)O` [AMPHOTERICIN B], the minimal inhibitory concentration (MIC) is 0.2 µg/mL (≈ 0.216 µM).

As to `C\C1=C/C=C/C=C/C=C/C=C/[C@H](O)[C@@H](C)OC(=O)[C@H](CCCC(C)C)[C@@H](O)C[C@@H](O)C[C@@H](O)C[C@@H](O)C[C@@H](O)C[C@@H](O)C[C@@H]1O`, the MIC was 1.56 µg/mL (≈ 2.44 µM).

Regarding `CCCCC[C@@H](O)[C@H]1C(=O)O[C@H](C)[C@@H](O)/C=C/C=C/C=C/C=C/C=C(\C)[C@@H](O)C[C@H](O)C[C@H](O)C[C@H](O)C[C@H](O)C[C@H](O)C[C@@H]1O` [FILIPIN], the MIC is 12.5 µg/mL (≈ 19.1 µM).

In the case of `C\C1=C/C=C/C=C/C=C/C=C/[C@H](O)[C@@H](C)OC(=O)C[C@@H](O)C[C@@H](O)C[C@@H](O)C[C@@H](O)C[C@@H](O)C[C@@H](O)C[C@@H]1O`, the minimum inhibitory concentration (MIC) is over 12.5 µg/mL.

As to `C\C1=C/C=C/C=C/C=C/C=C/C[C@@H](C)OC(=O)C[C@@H](O)C[C@@H](O)C[C@@H](O)C[C@@H](O)C[C@@H](O)C[C@@H]1O`, the MIC is over 12.5 µg/mL.

In the case of `C\C1=C/C=C/C=C/C=C/C=C/C[C@@H](C)OC(=O)C[C@@H](O)C[C@@H](O)C[C@@H](O)C[C@@H](O)C[C@@H](O)C[C@@H](O)C[C@@H]1O`, the MIC was over 12.5 µg/mL.
